“And” between values parts separate entries of the source, which are not always exact repeats. Identical values can stand only once. Like-named read-outs stand apart in the source and are kept apart here.
How the values were obtained:
[1] = system: tyrosine phosphorylation in primary macrophages; test: Tyrosine phosphorylation assay in primary macrophages (Western blot); assay type: cell-based, mouse
Experimental: (§1) Tyrosine Phosphorylation Assay: Tyrosine phosphorylation in macrophages or bone marrow-derived cells (BMDCs) of mice was assayed. Mouse primary macrophages were isolated from the peritoneum of 7-8 week old C57BL/6 female mice following thioglycollate stimulation. […] Mouse primary bone marrow-derived cells were isolated by flushing bone marrow out of the femur and tibia of female SJL mice using cold RPMI-1640. […] Cells were then washed, resuspended in the same buffer and depleted of B and T cells on a Midi-Macs separation unit through a LD or LS column (Miltenyi Biotech). […] The medium was replaced every other day. […] Proteins with phosphorylated tyrosine were then observed by Western blot, using a monoclonal anti-phosphotyrosine antibody. Western blotting for ERK1/2 or α-tubulin was performed as a control for protein loading.

[2] = system: tyrosine phosphorylation in bone marrow-derived cells; test: Tyrosine phosphorylation assay in bone marrow-derived cells (Western blot); assay type: cell-based, mouse
Experimental: as §1

[3] = system: mouse peritoneal macrophages; test: In vitro toxicity assay; assay type: cell-based; details: for LD50: crystal violet cell number
Experimental: Thioglycollate-elicited mouse peritoneal macrophages were washed, counted and seeded (2×10^5 to 3×10^5 cells per well in 24-well plates) in triplicate wells in medium containing RPMI-1640, L-glutamine, 10% FBS and antibiotics (penicillin/streptomycin). After a recovery period of 24 hours, the tested compound (or controls) was added to the cell medium at doses of 2, 10, 20, 50, 100 or 150 μg/ml, keeping the added volume equal in all treatments by complementing the volume with solvent.
Following addition of the compounds, the cells were incubated for an additional 24 hours, after which the cells were washed, fixed with a solution of 10% methanol/10% acetic acid and stained with crystal violet (0.4% in 20% ethanol). Cell numbers were measured by determining optical density at 595 nm. Cells incubated with vehicle (PBS with 1% ethanol) were used as a control, to which cell numbers in treated samples were normalized.
Data are presented as mean±standard deviation. Statistical significance relative to vehicle-treated cells was calculated using a student's t-test, with p-values of less than 0.05 being considered as indicating statistical significance.

IL12/23 p40 = test: In vitro IL12/23p40 production assay; assay type: cell-based, mouse; details: bone marrow-derived cells
Experimental: In Vitro IL12/23p40 Production Assay:
Bone marrow derived cells (BMDCs) were obtained from the femur and tibia of female C57BL mice, cultured, and seeded at a concentration of 10^6 cells/ml 5-6 days post-culturing, as described hereinabove for the tyrosine phosphorylation assay.
The tested compound was then added to the cells for 1 hour at a concentration of 1, 2.5, 5, 10 or 20 μg/ml. The cells were activated for IL12/23p40 production by incubation for 24 hours with 10 μg/ml peptidoglycan (PGN). Cytokine production from the supernatant was measured by ELISA. Activated cells without the tested compound were used as the control.

[4] = peritoneal macrophages, 24 hours
[5] = compound 1, 2.5, 5, 10 or 20 μg/ml for 1 hour, then 10 μg/ml peptidoglycan 24 hours, ELISA
[6] = peritoneal macrophages, 24 hours, doses 2-150 μg/ml
[7] = peritoneal macrophages, 24 hours, only one of two experiments
[8] = peritoneal macrophages, 24 hours, up to 150 μg/ml

1-(2-octyl)dodecyl-2-(4-carboxy)butyl-glycero-3-phosphocholine [VB-221]
phosphotyrosine levels ([1]; 5 ng/ml (8 μM)): induction of tyrosine phosphorylation
phosphotyrosine levels ([1]; 10 ng/ml (16 μM)): induction of tyrosine phosphorylation
phosphotyrosine levels ([1]; 20 ng/ml): induction of tyrosine phosphorylation

1-(2-octyl)dodecyl-2-(4-carboxy)butyl-glycero-3-phosphoethanolamine [VB-222]
phosphotyrosine levels ([1]; 10 μg/ml, 10 minutes): induction of tyrosine phosphorylation
phosphotyrosine levels ([1]; 20 μg/ml, 10 minutes): induction of tyrosine phosphorylation

CCCCCCCCCCCCCCCCOCC(COP(=O)([O-])OCC[N+](C)(C)C)OCCCCCCC(=O)O (racemic) [racemic CI-203, 1-hexadecyl-2-(6-carboxy)hexanyl-glycero-3-phosphocholine]
phosphotyrosine levels ([2]; 20 μg/ml (33 μM)): caused a reduction in phosphotyrosine levels

CCCCCCCCCCCCCCCCSCC(COP(=O)([O-])OCC[N+](C)(C)C)OCCCCC(=O)O (centres unmarked) [1-S-CI-201, 1-S-hexadecyl-2-(4-carboxy)butyl-glycero-3-phosphocholine]
phosphotyrosine levels ([1]; 10 μg/ml, 10 minutes): little effect, if any
phosphotyrosine levels ([1]; 20 μg/ml, 10 minutes): caused a reduction in phosphotyrosine levels

CCCCCCCCCCCCCCCCSCC(COP(=O)(O)OCCN)OCCCCC(=O)O (centres unmarked) [1-S-CI-202, 1-S-hexadecyl-2-(4-carboxy)butyl-glycero-3-phosphoethanolamine]
phosphotyrosine levels ([1]; 10 μg/ml, 10 minutes): caused an increase in phosphotyrosine levels
phosphotyrosine levels ([1]; 20 μg/ml, 10 minutes): caused a reduction in phosphotyrosine levels

CCCCCCCCCCCCCCCCOC[C@H](COP(=O)([O-])OCC[N+](C)(C)C)OCCCCCCC(=O)O [(R)-CI-203, (R)-1-hexadecyl-2-(6-carboxy)hexanyl-sn-glycero-3-phosphocholine]
phosphotyrosine levels ([2]; 20 μg/ml (33 μM)): caused a reduction in phosphotyrosine levels

CCCCCCCCCCCCCCCCOCC(COP(=O)(O)O)OCCCCC(=O)O (centres unmarked) [CI-201-PA, 1-hexadecyl-2-(4-carboxy)butyl-glycero-3-phosphate]
dose at which (significant) toxicity was detected ([3]; mouse, 24 h): ≥ 20 µg/mL
dose at which toxicity was detected in only one experiment ([3]; mouse, 24 h): 10 µg/mL
LD50 [3, 4]: approximately 50 μg/ml

CCCCCCCCCCCCCCCCOCC(COP(=O)([O-])OCC[N+](C)(C)C)OCCCCCCC(=O)O (centres unmarked) [CI-203, 1-Hexadecyl-2-(6-carboxy)hexanyl-glycero-3-phosphocholine]
production of IL12/23 p40 (IL12/23 p40; [5]): inhibited production of IL12/23 p40 by bone marrow-derived cells in a dose-dependent manner
dose at which (significant) toxicity was detected [3, 6]: 100 µg/mL
phosphotyrosine levels ([2]; 1 μg/ml (1.7 μM)): no apparent effect

CCCCCCCCCCCCCCCCOCC(COP(=O)([O-])OCC[N+](C)(C)C)OCCCC(=O)O (centres unmarked) [CI-205, 1-hexadecyl-2-(3-carboxy)propyl-glycero-3-phosphocholine]
phosphotyrosine levels ([1]; 20 μg/ml, 10 minutes): causes reduction in phosphotyrosine levels
dose at which (significant) toxicity was detected [3, 6]: 100 µg/mL
dose at which toxicity was detected in only one experiment [3, 7]: 20 to 50 µg/mL

CCCCCCCCCCCCCCCCOCC(COP(=O)(O)OCCN)OCCCC(=O)O (centres unmarked) [CI-206, 1-hexadecyl-2-(3-carboxy)propyl-glycero-3-phosphoethanolamine]
phosphotyrosine levels ([1]; 20 μg/ml, 10 minutes): causes reduction in phosphotyrosine levels
dose at which (significant) toxicity was detected ([3]; mouse, 24 h): ≥ 50 µg/mL

CCCCCCCCCCCCCCCCOCC(COP(=O)([O-])OCC[N+](C)(C)C)OCCCCC(=O)OC (centres unmarked) [CI-208, 1-hexadecyl-2-(4-methylcarboxy)butyl-glycero-3-phosphocholine]
phosphotyrosine levels ([1]; 20 ng/ml): causes a reduction in phosphotyrosine levels, which is stronger than the reduction caused by treatment with 20 ng/ml of the CI-201 control
dose at which toxicity was detected in only one experiment ([3]; mouse, 24 h): 20 µg/mL

CCCCCCCCCCCCOCC(COP(=O)([O-])OCC[N+](C)(C)C)OCCCCC(=O)O (centres unmarked) [CI-209, 1-dodecyl-2-(4-carboxy)butyl-glycero-3-phosphocholine]
production of IL12/23 p40 (IL12/23 p40; [5]): inhibited production of IL12/23 p40 by bone marrow-derived cells in a dose-dependent manner
phosphotyrosine levels ([1]; 20 μg/ml, 10 minutes): induced an increase in phosphotyrosine levels
LD50 [3, 4]: above 150 μg/ml and > 286 μM
toxicity within the range of tested doses [3, 8]: toxicity of CI-209 was not observed at any of the tested doses

CCCCCCCCCCCCCCCCOCC(COP(=O)(O)OCCNC(=O)CCCC(=O)O)OCCCCC(=O)O (centres unmarked) [CI-210, 1-hexadecyl-2-(4-carboxy)butyl-glycero-3-phosphoethanolamine-N-glutaric acid]
production of IL12/23 p40 (IL12/23 p40; [5]): inhibited production of IL12/23 p40 by bone marrow-derived cells in a dose-dependent manner
phosphotyrosine levels ([1]; 20 μg/ml, 10 minutes): induced an increase in phosphotyrosine levels
dose at which (significant) toxicity was detected ([3]; mouse, 24 h): ≥ 100 µg/mL
dose at which significant toxicity was observed ([3]; mouse, 24 h): ≥ 156.6 µM
LD50 [3, 4]: approximately 150 μg/ml and ~235 μM

C[N+](C)(C)CCOP(=O)([O-])OCC(COCCCCCCCCCCCCCCCC(=O)O)OCCCCC(=O)O (centres unmarked) [CI-213, 1-(15′-carboxy)pentadecyl-2-(4-carboxy)butyl-glycero-3-phosphocholine]
dose at which a significant decrease in cell number was detected in only one experiment ([3]; peritoneal macrophages, 24 hours, only one experiment): 163.5 µM
dose at which toxicity was detected in only one experiment [3, 7]: 100 µg/mL
toxicity within the range of tested doses [3, 8]: did not clearly exhibit significant toxicity within the range of tested doses

NCCOP(=O)(O)OCC(COCCCCCCCCCCCCCCCC(=O)O)OCCCCC(=O)O (centres unmarked) [CI-214, 1-(15′-carboxy)pentadecyl-2-(4-carboxy)butyl-glycero-3-phosphoethanolamine]
toxicity within the range of tested doses [3]: did not clearly exhibit significant toxicity within the range of tested doses
dose at which a significant decrease in cell number was detected in only one experiment ([3]; mouse, 24 h): 175.5 µM
dose at which toxicity was detected in only one experiment ([3]; mouse, 24 h): 100 µg/mL

CCCCCCCCCCCCCCCCCCOCC(COP(=O)([O-])OCC[N+](C)(C)C)OCCCCC(=O)O (centres unmarked) [CI-215, 1-octadecyl-2-(4-carboxy)butyl-glycero-3-phosphocholine]
phosphotyrosine levels ([1]; 10 μg/ml, 10 minutes): induced an increase in phosphotyrosine levels
phosphotyrosine levels ([1]; 20 μg/ml, 10 minutes): caused a decrease in phosphotyrosine levels

CCCCCCCCCCCCCCCCCCOCC(COP(=O)(O)OCCN)OCCCCC(=O)O (centres unmarked) [CI-216, 1-octadecyl-2-(4-carboxy)butyl-glycero-3-phosphoethanolamine]
production of IL12/23 p40 (IL12/23 p40; 20 μg/ml): inhibited production of IL12/23 p40 by bone marrow-derived cells
phosphotyrosine levels ([1]; 10 μg/ml, 10 minutes): induction of tyrosine phosphorylation
phosphotyrosine levels ([1]; 20 μg/ml, 10 minutes): reduction in phosphotyrosine levels

CCCCCCCCCCCCCCCCOCC(COP(=O)([O-])OCC[N+](C)(C)C)OCCC(=O)O (centres unmarked) [CI-217, 1-Hexadecyl-2-(2-carboxy)ethyl-glycero-3-phosphocholine]
phosphotyrosine levels ([1]; 10 μg/ml, 10 minutes): little effect
phosphotyrosine levels ([1]; 20 μg/ml, 10 minutes): caused a reduction in phosphotyrosine levels

CCCCCCCCCCCCCCCCCCCCOCC(COP(=O)([O-])OCC[N+](C)(C)C)OCCCCC(=O)O (centres unmarked) [CI-219, 1-eicosanyl-2-(4-carboxy)butyl-glycero-3-phosphocholine]
phosphotyrosine levels ([1]; 10 μg/ml, 10 minutes): little effect, if any
phosphotyrosine levels ([1]; 20 μg/ml, 10 minutes): caused a reduction in phosphotyrosine levels

CCCCCCCCCCCCCCCCCCCCOCC(COP(=O)(O)OCCN)OCCCCC(=O)O (centres unmarked) [CI-220, 1-eicosanyl-2-(4-carboxy)butyl-glycero-3-phosphoethanolamine]
phosphotyrosine levels ([1]; 10 μg/ml, 10 minutes): little effect, if any
phosphotyrosine levels ([1]; 20 μg/ml, 10 minutes): caused a reduction in phosphotyrosine levels

CCCCCCCCCCCCCCCCOCC(COP(=O)(O)OCC(N)C(=O)O)OCCCCC(=O)O (centres unmarked) [VB-223, 1-hexadecyl-2-(4-carboxy)butyl-glycero-3-phosphoserine]
phosphotyrosine levels ([1]; 1 μg/ml, 10 minutes): perhaps also
phosphotyrosine levels ([1]; 5 μg/ml, 10 minutes): induction of tyrosine phosphorylation
phosphotyrosine levels ([1]; 10 μg/ml, 10 minutes): induction of tyrosine phosphorylation
phosphotyrosine levels ([1]; 20 μg/ml, 10 minutes): induction of tyrosine phosphorylation

CCCCCCCCCCCCCCCCOCC(COP(=O)([O-])OCC[N+](C)(C)C)OCCCCC(OCC)OCC (centres unmarked) [diEtAc, 1-hexadecyl-2-(5′,5′-diethoxypentyl)-glycero-3-phosphocholine]
dose at which (significant) toxicity was detected ([3]; mouse, 24 h): ≥ 20 µg/mL
dose at which toxicity was detected in only one experiment ([3]; mouse, 24 h): 10 µg/mL

— patent US9206206B2, “Oxidized lipid compounds and uses thereof” (Vascular Biogenics Ltd., priority 2008, dated 2015)
